Experimental data from PubChem BioAssay (NCI).
“And” between values parts separate entries of the source, which are not always exact repeats. Equal entries are not always repeated.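 Growth conditions: 96-well plates. Treatment: test compound, 48 hours, 5 concentrations. Analysis: linear interpolation between bracketing concentrations; unreached endpoints set to highest concentration. The concentration for 50% growth inhibition is given as GI50. TGI: total growth inhibition.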

Assays:
Experiment in all cases: NCI anticancer screen, dose series, 48 h
[1] = system: EKVX NSCLC
[2] = system: SF-295 CNS
[3] = system: SK-MEL-2 melanoma
[4] = system: NCI-H23 lung
[5] = system: NCI-H460 lung
[6] = system: NCI-H522 lung
[7] = system: SR leukemia
[8] = system: HOP-92 NSCLC
[9] = system: CAKI-1 renal
[10] = system: MDA-MB-435

Structure (SMILES): COc1cc2c(c3oc(-c4ccc5c(c4)OCO5)c(O)c(=O)c13)CCC(C)(C)O2
- TGI [1]: > 100 µM
- TGI [2]: > 100 µM
- TGI [3]: > 100 µM
- TGI [4]: > 100 µM

Structure (SMILES): COc1ccc(C(=O)Nc2ncc(Cc3ccc(F)cc3)s2)cc1
- GI50 [5]: 0.0408 µM
- TGI [5]: > 32.6 µM
- GI50 [6]: 0.0874 µM
- TGI [6]: > 100 µM
- GI50 [1]: 0.383 µM
- TGI [1]: > 100 µM
- GI50 [7]: 0.0336 µM
- TGI [7]: > 100 µM
- GI50 [2]: 0.0614 µM
- TGI [2]: 2.03 µM
- GI50 [8]: 1.45 µM
- TGI [8]: 76 µM
- GI50 [9]: 0.0446 µM
- TGI [9]: 30.7 µM
- GI50 [3]: 3.95 µM
- TGI [3]: > 100 µM
- GI50 [4]: 0.368 µM
- TGI [4]: > 100 µM

Structure (SMILES): Cc1c(N2C(=O)/C(=C\c3ccc(O)cc3)N=C2c2ccccc2)c(=O)n(-c2ccccc2)n1C
- GI50 [5]: > 100 µM
- TGI [5]: > 100 µM
- GI50 [6]: > 100 µM
- TGI [6]: > 100 µM
- GI50 [1]: > 100 µM
- TGI [1]: > 100 µM
- GI50 [2]: > 100 µM
- TGI [2]: > 100 µM
- GI50 [8]: > 100 µM
- TGI [8]: > 100 µM
- GI50 [9]: > 100 µM
- TGI [9]: > 100 µM
- GI50 [3]: > 100 µM
- TGI [3]: > 100 µM
- GI50 [10]: > 100 µM
- TGI [10]: > 100 µM
- GI50 [4]: > 100 µM
- TGI [4]: > 100 µM

Structure (SMILES): CC1(C)CCc2cc3c(cc2O1)OC(C)(C)C1c2c(ccc4c2CCC(C)(C)O4)OC31 (stereo unspecified)
- TGI [5]: > 100 µM
- TGI [6]: > 100 µM
- TGI [1]: > 100 µM
- TGI [7]: > 100 µM
- TGI [2]: > 100 µM
- TGI [8]: > 100 µM
- TGI [9]: > 100 µM
- TGI [3]: > 100 µM
- TGI [4]: > 100 µM

Structure (SMILES): NNC(=O)CC(=O)Nc1ccccc1F
- TGI [5]: > 100 µM
- TGI [6]: > 100 µM
- TGI [1]: > 100 µM
- TGI [2]: > 100 µM
- TGI [8]: > 100 µM
- TGI [9]: > 100 µM
- TGI [4]: > 100 µM

Structure (SMILES): Cc1cc(N(CCCNc2ccnc3cc(Cl)ccc23)Cc2cccs2)nc(Cl)n1
- GI50 [5]: 4.03 µM
- TGI [5]: 18.3 µM
- GI50 [6]: 2.9 µM
- TGI [6]: 18.7 µM
- GI50 [1]: 3.72 µM
- TGI [1]: 27.2 µM
- GI50 [8]: 2.63 µM
- TGI [8]: 20 µM
- GI50 [3]: 12.3 µM
- TGI [3]: 29.6 µM
- GI50 [10]: 4 µM
- TGI [10]: 15.8 µM
- GI50 [4]: 1.3 µM
- TGI [4]: 16.7 µM

Structure (SMILES): CCOC(=O)c1c(-c2[nH]c(C(=O)OCc3ccccc3)c(C)c2C(=O)OCC)[nH]c(C(=O)OCc2ccccc2)c1C
- TGI [5]: > 100 µM
- TGI [6]: > 100 µM
- TGI [1]: > 100 µM
- TGI [7]: > 100 µM
- TGI [2]: > 100 µM
- TGI [8]: > 100 µM
- TGI [9]: > 100 µM
- TGI [3]: > 100 µM

Structure (SMILES): COc1cc(C2[C@H]3C(=O)N(c4ccc(Cc5ccc(N6C(=O)[C@@H]7ON(c8ccccc8)C(c8cc(OC)c(OC)c(OC)c8)[C@@H]7C6=O)cc5)cc4)C(=O)[C@H]3ON2c2ccccc2)cc(OC)c1OC (stereo partly specified)
- TGI [5]: > 100 µM
- TGI [6]: > 100 µM
- TGI [1]: > 100 µM
- TGI [7]: > 100 µM
- TGI [2]: > 100 µM
- TGI [9]: > 100 µM
- TGI [3]: > 100 µM
- TGI [4]: > 100 µM

Structure (SMILES): CC[C@](O)(C(=O)O)c1cc2n(c(=O)c1CO)Cc1cc3ccccc3nc1-2
- GI50 [5]: < 0.0025 µM
- TGI [5]: 0.0234 µM and 0.125 µM and 0.0345 µM
- GI50 [1]: 0.283 µM and 0.63 µM
- GI50 [2]: 0.0029 µM and < 0.0134 µM
- TGI [2]: 0.101 µM and 0.0956 µM and 0.107 µM
- GI50 [8]: 0.163 µM
- TGI [8]: 5.67 µM and 0.567 µM
- GI50 [9]: < 0.0025 µM
- GI50 [3]: 0.314 µM and 0.39 µM
- TGI [3]: 1.7 µM and 1.46 µM and 0.699 µM
- GI50 [10]: 0.101 µM
- TGI [10]: 0.632 µM and 0.516 µM
- GI50 [4]: 0.0058 µM and 0.0215 µM

Structure (SMILES): COc1cc(C)c(C(=O)/C=C/c2cc(OC)c(O)c(OC)c2)cc1O
- TGI [5]: > 100 µM
- TGI [6]: 39.6 µM
- TGI [1]: > 100 µM
- TGI [2]: > 100 µM
- TGI [9]: > 100 µM
- TGI [3]: 38.8 µM
- TGI [4]: 36.4 µM

Structure (SMILES): Cc1cn(C2C=CC(=O)C(C)O2)c(=O)[nH]c1=O (stereo unspecified)
- TGI [5]: 35.5 µM
- TGI [6]: 32.4 µM
- TGI [7]: 43.8 µM
- TGI [2]: 31.3 µM
- TGI [8]: 29.5 µM
- TGI [9]: 31.5 µM
- TGI [4]: 37.1 µM

Structure (SMILES): COc1cc2ccc(CC#N)cc2cc1OC
- TGI [5]: > 100 µM
- TGI [1]: > 100 µM
- TGI [7]: > 100 µM
- TGI [2]: > 100 µM
- TGI [8]: > 100 µM
- TGI [9]: > 100 µM
- TGI [3]: > 100 µM
- TGI [4]: > 100 µM

Structure (SMILES): COC(=O)C1CC2(c3ccc(C)cc3)C(c3ccc(C)cc3)=C(c3ccc(C)cc3)C1(c1ccc(C)cc1)S2=O (stereo unspecified)
- GI50 [5]: > 100 µM
- TGI [5]: > 100 µM
- GI50 [6]: 96.3 µM
- TGI [6]: > 100 µM
- GI50 [1]: > 100 µM
- TGI [1]: > 100 µM
- GI50 [2]: 57.6 µM
- TGI [2]: > 100 µM
- GI50 [9]: > 100 µM
- TGI [9]: > 100 µM
- GI50 [3]: > 100 µM
- TGI [3]: > 100 µM
- GI50 [10]: > 100 µM
- TGI [10]: > 100 µM
- GI50 [4]: > 100 µM
- TGI [4]: > 100 µM

Structure (SMILES): COc1cc(C2c3cc4c(cc3C3OC(=O)C2C3CO)OCO4)cc(OC)c1OC (stereo unspecified)
- GI50 [5]: 0.0299 µM
- TGI [5]: > 100 µM
- GI50 [6]: < 0.01 µM
- TGI [6]: 0.0351 µM
- GI50 [2]: 0.0182 µM
- TGI [2]: 0.166 µM
- GI50 [8]: < 0.0108 µM
- TGI [8]: 0.0869 µM
- GI50 [9]: 0.0511 µM
- TGI [9]: > 100 µM
- GI50 [3]: 0.0337 µM
- TGI [3]: > 100 µM
- GI50 [10]: 0.01 µM
- TGI [10]: 0.0374 µM
- GI50 [4]: 0.0317 µM
- TGI [4]: > 100 µM

Structure (SMILES): CCN(CC)c1ccc(/C=C/C(=O)c2cccc(NS(C)(=O)=O)c2)cc1
- GI50 [5]: 4.72 µM
- TGI [5]: > 100 µM
- GI50 [6]: 87.7 µM
- TGI [6]: > 100 µM
- GI50 [1]: 5.46 µM
- TGI [1]: > 100 µM
- GI50 [2]: 5.91 µM
- TGI [2]: > 100 µM
- GI50 [8]: 14 µM
- TGI [8]: 71.1 µM
- GI50 [9]: 7.97 µM
- TGI [9]: > 100 µM
- GI50 [3]: > 100 µM
- TGI [3]: > 100 µM
- GI50 [10]: 3.29 µM
- TGI [10]: > 100 µM
- GI50 [4]: 4.51 µM
- TGI [4]: > 100 µM

Structure (SMILES): O=C1C[C@@H](c2ccccc2)NCCCCN(O)CCCN1
- TGI [6]: > 100 µM
- TGI [1]: > 100 µM
- TGI [2]: > 100 µM
- TGI [8]: > 100 µM
- TGI [9]: > 100 µM
- TGI [3]: > 100 µM
- TGI [10]: > 100 µM
- TGI [4]: > 100 µM

Structure (SMILES): COc1ccc2oc(-c3ccncc3)cc(=O)c2c1
- TGI [5]: > 100 µM
- TGI [2]: > 100 µM
- TGI [8]: > 100 µM
- TGI [9]: > 100 µM
- TGI [3]: > 100 µM
- TGI [4]: > 100 µM

Structure (SMILES): CC1=C[C@H]2c3c(c(O)c(O)c4oc5cc(O)cc(O)c5c(=O)c34)[C@H](c3cc(O)c(O)c4oc5cc(O)cc(O)c5c(=O)c34)[C@H]2C(C)(C)C1
- GI50 [6]: 1.3 µM and 1.34 µM
- TGI [6]: 3.04 µM and 4.56 µM
- GI50 [1]: 2.67 µM and 2.2 µM
- TGI [1]: 13.7 µM and 8.53 µM
- GI50 [2]: 1.98 µM and 1.63 µM
- TGI [2]: 6.32 µM and 4.96 µM
- GI50 [8]: 1.94 µM and 1.1 µM
- TGI [8]: 4.73 µM and 3.33 µM
- GI50 [9]: 3.45 µM and 2.18 µM
- TGI [9]: 11.1 µM and 6.53 µM
- GI50 [3]: 2.41 µM
- TGI [3]: 5.17 µM and 6.41 µM
- GI50 [10]: 0.962 µM and 1.29 µM
- TGI [10]: 2.67 µM and 3.12 µM
- GI50 [4]: 1.04 µM and 1.21 µM
- TGI [4]: 2.95 µM and 3.39 µM
